From patent US5070074A, “Hypoglycemic and growth-promoting polypeptides isolated from bacitracin” (Protor Co., priority 1990, dated 1991)

Tested on: insulinase
Test: insulinase inhibitory activity (method of Duckworth et al.)
Format: biochemical
Conditions: peaks from CM-Sepharose fractionation of commercial bacitracin
Experimental: The desired fraction is believed to have a molecular weight of about 1400, approximately the same as bacitracin A or F. Their anti-insulinase and antibacterial activities can be assayed in conventional manner. For example, the insulinase inhibitory activity was measured according to the method of Duckworth, et al., Proc. Nat. Acad. Sci., 69, 3698-3702 (1972) and the anti-bacterial activity by the method of Patrick, et al., Antibiotics and Chemotherapy, 1, 133-137 (1951).
A 350 ml bed volume of CM-Sepharose in a packed column (2.8×56 cm) was equilibrated with 0.05M ammonium acetate, pH 4.5 One gram of commercial bacitracin dissolved in 50 ml of buffer was applied to the packed column. The material was eluted with […] of equilibrating buffer followed by 350 ml of 1M ammonium acetate pH 4.5 buffer. Five ml fractions were collected and absorbance measurements at 252, 280 and 290 nm were made. In addition, insulinase inhibitory activity measurements were made on each peak. […] The peaks were collected, lyophilized, weighed and dissolved in water at 5 mg/ml concentration for specific activity measurements. The material collected with the second buffer contained 5-10 % of the total weight of the applied material and 90 % of the total insulinase inhibitory capacity. The specific activity of this material was 10-12 times that of the starting commercial material.

Row | Substance | insulinase inhibitory activity | insulinase inhibitory activity (listed as bacitracin F) | insulinase inhibitory activity (listed as bacitracin A)
1 | bacitracin F | negligible | substantially no | –
2 | bacitracin A | negligible | – | substantially no
